These results are taken from patent US20220267288A1, “CARDIAC THERAPEUTIC” (priority 2019, published 2022).

For one data set, the system named is dogs. Description: Electrophysiological variables (AERP, VERP, repolarization periods) in halothane-anesthetized dogs. The class given is in vivo, dog. The following applies: 3 mg/kg. The method, then:
Animals were obtained through Kitayama Labes Co., Ltd. (Nagano, Japan). All experiments were approved by the Toho University Animal Care and User Committee (No. 18-51-395) and performed according to the Guideline for the Care and Use of Laboratory Animals of Toho University.
The dogs were initially anesthetized with thiopental sodium (30 mg/kg, i.v.). After intubation with a cuffed endotracheal tube, anesthesia was maintained by inhalation of halothane (1% v/v) vaporized in oxygen with a volume-limited ventilator (SN-480-3; Shinano Manufacturing Co., Ltd., Tokyo, Japan). Tidal volume and respiratory rate were set at 20 mL/kg and 15 breaths/min, respectively. […] To prevent blood clotting, heparin calcium (100 IU/kg) was intravenously administered through a flush line of the catheter sheath placed at the right femoral vein.
The lead II electrocardiogram was obtained from the limb electrodes. The P-wave duration, PR interval, QRS width and QT interval were measured, and QT interval was corrected with Van de Water's formula: QTc=QT-0.087×(RR-1,000) with RR given in ms. The J-Tpeak and Tpeak-Tend were measured as follows. When the end of T-wave was obscure, we used the monophasic action potential (MAP) signal as a guide to estimate the end. The J-Tpeak was corrected for the heart rate with a coefficient as previously described (J-Tpeakc=J-Tpeak/RR^0.58 with RR given in seconds).
A standard 6-French, quad-polar electrodes catheter (Cordis-Webster Inc., Baldwin Park, Calif., USA) was positioned at the non-coronary cusp of the aortic valve through the left femoral artery to obtain the His bundle electrogram. Another 6-French, quad-polar electrode catheter (Cordis-Webster Inc.) was positioned at the sinus nodal areas of the right atrium through the right femoral vein to electrically pace and to record the local electrogram. A bi-directional steerable MAP recording/pacing combination catheter (1675P; EP Technologies, Inc., CA, USA) was positioned at the endocardium of the interventricular septum in the right ventricle through the left femoral vein to obtain MAP signals. The signals were amplified with a DC preamplifier (model 300; EP Technologies, Inc.). The duration of the MAP signals was measured as an interval, along a horizontal line corresponding to the diastolic baseline, from the MAP upstroke to the desired repolarization level. The interval (ms) at 90% repolarization was defined as MAP90.
The heart was electrically driven with a cardiac stimulator (SEC-3102; Nihon Kohden Co., Ltd.) via the pacing electrodes of the combination catheter placed in the right ventricle or the electrodes of the catheter placed at the right atrium. The stimulation pulses were rectangular in shape, 1-2 V (about twice the threshold voltage) and 1 ms duration. The MAP90 of the ventricle was measured during sinus rhythm (MAP90(sinus)) and at a pacing cycle length of 400 ms (MAP90(CL400)) and 300 ms (MAP90(CL300)). The atrial effective refractory period (AERP) and ventricular effective refractory period (VERP) were assessed with the programmed electrical stimulation. The pacing protocol consisted of 5 beats of basal stimuli in a cycle length of 400 ms followed by an extra stimulus of various coupling intervals. Starting in the late diastole, the coupling interval was shortened in 5-ms decrements until the additional stimulus could no longer elicit a response. The AERP and VERP were defined as the shortest coupling interval that could produce a response. The duration of the terminal repolarization period of the ventricle, reflecting phase-3 repolarization time of the action potential, was calculated by the difference between the MAP90(CL400) and VERP (terminal repolarization period=MAP90(CL400)−VERP) at the same site to estimate the extent of electrical vulnerability of the ventricular muscle.

Data set [1] deals with H9c2 cells. Description: Reduction of intracellular ATP (Mitochondrial ToxGlo) in differentiated H9c2 cells. The class given is cell-based. As to conditions: 0-1 μM pre-treatment 2 h, then dronedarone. The method, then:
(§1) H9c2 cell line was purchased from American Tissue Type Collection (ATCC) (Manassas, Va.). The cells were cultured in low-glucose DMEM growth media (Cat No: 31600, Thermo Fisher Scientific, Waltham, Mass.) supplemented with 1.5 g/L sodium bicarbonate, 25 mM HEPES, 10% fetal bovine serum (FBS) (GE Healthcare, Singapore), 100 units/mL penicillin, 100 μg/mL streptomycin and 250 ng/mL amphotericin B in 75-cm^2 tissue-culture flasks at 37° C. in a humidified atmosphere of 5% CO2. Cells were fed every 2-3 days and sub-cultured once 70-80% confluency was achieved to prevent the loss of differentiation potential. For differentiation, H9c2 cells were seeded at a density of 100,000 cells/well in 12-well plates. The cells were maintained for 1 day in low-glucose high-serum growth media to allow for cell attachment. Subsequently, cells were differentiated using 1 μM ATRA.
H9c2 cells were seeded in a white chimney plate and differentiated. The media was changed to DMEM with 10 mM galactose, 2 mM glutamine (6 mM final), 5 mM HEPES, 1 mM sodium pyruvate, 100 U/mL penicillin, 100 μg/mL streptomycin, 0.25 μg/mL amphotericin B, 1% FBS, 1× insulin-transferrin-selenium and 1 μM ATRA for 48 h to overcome the Crabtree effect. […] The cytotoxicity and intracellular ATP content were measured concurrently using Mitochondrial ToxGlo™ kit (Promega, Madison, Wis.) using manufacturer's protocol. Mitochondrial ToxGlo™ assay measures the cell viability using fluorogenic peptide bis-alanine-alanine-phenylalanine-R110 (bis-AAF-R110). Bis-AAF-R110 is a selective peptide that measures protease activity in dead cells since it is impermeable to live cells. Here, the fluorescence derived from metabolized bis-AAF-R110 was measured at different concentrations of the test compounds and compared to control. As the concentration of cytotoxic compound increases, the number of dead cells increases, leading to a higher fluorescence signal. ATP is measured by adding the ATP Detection Reagent, resulting in cell lysis and generation of a luminescent signal proportional to the amount of ATP present. […]

The subject of data set [2] is H9c2 cells. The data set can be described thus: Mitochondrial membrane potential (Δψm) dissipation, TMRM dye. In kind it is cell-based. The following applies: pre-treatment, then dronedarone at 5 μM. The method, then:
as §1
Dissipation of Δψm by each test compound was measured using mitochondrial permeable dye, tetramethylrhodamine methyl ester perchlorate (TMRM) (Thermo Fisher Scientific, Waltham, Mass.). […] The media was aspirated, the cells were washed with PBS and fluorescence was measured at 557 nm excitation and 570 nm emission wavelengths. […] The media was aspirated and then the cells were treated with dronedarone and the dissipation of Δψm by AADs was measured as described.

The subject of a further data set is hiPSC-CM. Description: Extracellular field potential duration (FPD), multi electrode array. In kind it is cell-based, human. The following applies: MEA, 0-10 μM. The method, then:
Electrophysiological perturbations of hiPSC-CM were measured using multi electrode array (MEA) recording system (Multichannel Systems, Reutlingen, Germany). […] FPD measurements were normalized (corrected FPD [cFPD]) to the beating rate of the contracting areas with the Bazzet correction formula: cFPD=FPD/√(RR interval) as described previously^3. One-phase decay algorithm was used to plot corrected FPD curves.

For data set [3], the target named is T1, CYP2J2 (Homo sapiens, UniProt P51589).
T1 sequence (P51589 1-502): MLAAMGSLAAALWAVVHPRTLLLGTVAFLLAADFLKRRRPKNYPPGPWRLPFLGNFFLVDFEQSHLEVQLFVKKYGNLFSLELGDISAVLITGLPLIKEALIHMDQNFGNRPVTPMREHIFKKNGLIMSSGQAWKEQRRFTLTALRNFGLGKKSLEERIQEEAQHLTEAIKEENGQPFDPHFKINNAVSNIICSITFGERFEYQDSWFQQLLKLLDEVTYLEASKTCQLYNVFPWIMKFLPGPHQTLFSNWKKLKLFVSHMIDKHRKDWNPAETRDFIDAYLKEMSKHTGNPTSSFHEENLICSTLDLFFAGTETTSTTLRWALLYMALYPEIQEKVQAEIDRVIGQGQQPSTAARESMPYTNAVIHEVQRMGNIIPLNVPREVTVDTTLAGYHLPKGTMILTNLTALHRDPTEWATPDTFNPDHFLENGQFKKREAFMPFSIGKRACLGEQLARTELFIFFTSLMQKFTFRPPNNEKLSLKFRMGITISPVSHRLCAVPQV
The data set can be described thus: Time- and concentration-dependent inactivation (MBI) of CYP2J2, rivaroxaban as probe substrate. In kind it is biochemical. On the set-up: purchased BD Gentest (Woburn, Mass.). The method, then: Incubations were conducted in triplicates in 96-well plates. Primary incubation mixtures comprising various concentrations of inhibitor (0-20 μM) were pre-incubated at 37° C. for 3 min with CYP450 enzymes (20 pmol/m L) and NADPH B in potassium phosphate buffer (100 mM, pH 7.4). To initiate the enzymatic reaction, 5 μL NADPH A was added to the primary incubation. The final primary incubation mixture volume was 100 μL and contained <1% v/v organic solvent. At different pre-incubation time points (3, 8, 15, 22, 30, and 45 min) after the addition of NADPH A, 5 μL aliquots of the primary incubation were transferred to 95 μL of the secondary incubation containing 50 μM rivaroxaban, the NADPH A and B, and potassium phosphate buffer (100 mM, pH 7.4) to yield a 20-fold dilution. The secondary incubation mixtures were incubated at 37° C. for 30 min with CYP2J2, before 80 μL aliquots were removed and quenched with an equal volume of ice-cold ACN containing 4 μM dexamethasone as IS. The samples were then centrifuged at 3220 g at 4° C. for 30 min before transferring the supernatant to a 96-well plate for liquid chromatography-tandem mass spectrometry (LC-MS/MS) analysis. The main rivaroxaban metabolite, morpholinone hydroxylated metabolite, was quantified using LC-MS/MS analysis.
The mean of triplicate peak area ratios for each concentration and pre-incubation time was normalized to that of 0 μM with the same pre-incubation time. The amount of rivaroxaban metabolite formed during the secondary incubation, a measure of the probe substrate activity remaining, was computed and the natural logarithm of this measure was plotted against inactivation pre-incubation time for each inactivator concentration. […]
In equation 1, kinact=maximum inactivation rate constant at infinite inactivator concentration (in min^−1); KI=concentration of inactivator at the half-maximal rate constant of inactivation (in μM); [I]=in vitro inactivator concentration (in μM). MBI potency (kinact/KI ratio, μM-1·min-1) against human recombinant CYP2J2 is determined for each compound. […]

The subject of data set [4] is CYP2J2.
Procedure: The human ES cell line (H7 ESCs) with a knocked in, constitutively expressed Genetically Encoded Calcium Indicator (GECI) GCaMP6s was maintained on matrigel coated plates in StemMACS™ iPS-Brew XF (Miltenyi Biotec) and passaged in clumps using Collagenase IV (1 mg/mL) enzymatic treatment. For differentiation, ESCs were passaged in single cells using Accutase (Nacalai Tesque), and subjected to the previously established small molecule based GiWi cardiomyocyte differentiation protocol. At Day 7, the media was replaced with RPMI1640 (HyClone) supplemented with B27 with insulin (B27+) (Miltenyi Biotec) for maturation and refreshed every 2 days. […] The cardiomyocytes (H7 CMs) were used for siRNA transfections on day 28. […]
RNA samples (250 ng) were reverse transcribed to obtain cDNA using High-Capacity cDNA Reverse Transcription Kit (Applied Biosystems, U.S.A.). qPCR was performed using the FAST SYBR Green Mix (Applied Biosystems, U.S.A.) on 5 ng of cDNA. ΔΔCT-based relative quantification method was adopted for qPCR analysis using the QuantStudio 5 384-well Block Real-Time PCR system (Applied Biosystems, U.S.A.). The threshold cycle was determined to be Data is presented as fold-change where CT values were normalised to β-ACT/N. Data presented are representative of two independent experiments with error bars indicative of the standard deviation (SD) unless otherwise stated.

Take `CC(C)NCC(O)c1ccc(NS(C)(=O)=O)cc1` (racemic) [dl-sotalol]: in the data set on dogs (10 min after administration), the “ΔJ-Tpeakc (early repolarization period)” value is listed as “+35”, the “ΔTRP (terminal repolarization period)” value is listed as −1 and the “ΔTpeak-Tend (late repolarization period)” value is given as “+17”. In the data set on dogs (20 min after administration), the “Atrial selectivity (ΔAERP/ΔVERP)” value was found to be 1.1, the ΔAERP result is reported as “+60” and the ΔVERP result is given as “+53”. In the data set with dogs (30 min after administration), the “Atrial selectivity (ΔAERP/ΔVERP)” value is reported as 1.0, the ΔAERP result is listed as “+56” and the ΔVERP entry is recorded as “+54”.
As for `CCCCCC1OC1C/C=C\C/C=C\C/C=C\CCCC(=O)O` (stereo not shown) [14,15-EET], the “effect of pre-treatment on dronedarone-induced decrease in intracellular ATP” value with H9c2 cells [1] was “mitigated the decrease in intracellular ATP levels in a concentration-dependent manner”. In addition, in the data set on H9c2 cells [2], the “effect of pre-treatment on dronedarone-induced Δψm dissipation” value is listed as “concentration-dependent mitigation of Δψm dissipation”.
For the molecule `CCCCc1oc2ccccc2c1C(=O)c1cc(I)c(OCCN(CC)CC)c(I)c1` [Amiodarone], in the data set with dogs (15 min after administration), the “ΔJ-Tpeakc (early repolarization period)” value is reported as −10, the “ΔTRP (terminal repolarization period)” value is −11 and the “ΔTpeak-Tend (late repolarization period)” value was “+18”. In the data set on dogs (60 min after administration), the ΔAERP result is recorded as “+29” and the ΔVERP entry was “+18”. Moreover, the “effect on extracellular field potential duration (FPD)” value in the data set with hiPSC-CM is reported as “Dose-dependent increase in the FPD”.
In the case of `Cl.[2H]c1c([2H])c(C(=O)c2c(CCCC)oc3ccc(NS(C)(=O)=O)cc23)c([2H])c([2H])c1OCCCN(CCCC)CCCC` [Compound 2], the “inactivation (MBI) of CYP2J2, in words” value at CYP2J2 [3] is “inactivated CYP2J2 in a time- and concentration-dependent manner”.
In the case of `CC(C)COCC(CN(Cc1ccccc1)c1ccccc1)N1CCCC1` (stereo not shown) [bepridil], in the data set with dogs (10 min after administration), the “Atrial selectivity (ΔAERP/ΔVERP)” value was 3.0, the ΔAERP entry is listed as “+53” and the ΔVERP result is on record as “+55”. For the same molecule, in the data set on dogs (20 min after administration), the “ΔJ-Tpeakc (early repolarization period)” value is given as “+31”, the “ΔTRP (terminal repolarization period)” value is listed as “+4” and the “ΔTpeak-Tend (late repolarization period)” value is on record as “+14”.
As for “siRNA1: Accell self-delivery siRNA against CYP2J2, CUCAGGUGUAAUAUUGUUA, SEQ ID NO: 1 (Accell self-delivery modifications, pattern not given here)”, the “knockdown of CYP2J2, in words” value in the data set with CYP2J2 [4] was “most effective”.
